What was measured:
recombinant human HDAC 6 = molecular target: T1, recombinant human HDAC 6 (Homo sapiens, UniProt Q9UBN7); assay: In vitro HDAC assay with fluorogenic substrate, HDAC 6
T1 sequence (Q9UBN7 1-1215): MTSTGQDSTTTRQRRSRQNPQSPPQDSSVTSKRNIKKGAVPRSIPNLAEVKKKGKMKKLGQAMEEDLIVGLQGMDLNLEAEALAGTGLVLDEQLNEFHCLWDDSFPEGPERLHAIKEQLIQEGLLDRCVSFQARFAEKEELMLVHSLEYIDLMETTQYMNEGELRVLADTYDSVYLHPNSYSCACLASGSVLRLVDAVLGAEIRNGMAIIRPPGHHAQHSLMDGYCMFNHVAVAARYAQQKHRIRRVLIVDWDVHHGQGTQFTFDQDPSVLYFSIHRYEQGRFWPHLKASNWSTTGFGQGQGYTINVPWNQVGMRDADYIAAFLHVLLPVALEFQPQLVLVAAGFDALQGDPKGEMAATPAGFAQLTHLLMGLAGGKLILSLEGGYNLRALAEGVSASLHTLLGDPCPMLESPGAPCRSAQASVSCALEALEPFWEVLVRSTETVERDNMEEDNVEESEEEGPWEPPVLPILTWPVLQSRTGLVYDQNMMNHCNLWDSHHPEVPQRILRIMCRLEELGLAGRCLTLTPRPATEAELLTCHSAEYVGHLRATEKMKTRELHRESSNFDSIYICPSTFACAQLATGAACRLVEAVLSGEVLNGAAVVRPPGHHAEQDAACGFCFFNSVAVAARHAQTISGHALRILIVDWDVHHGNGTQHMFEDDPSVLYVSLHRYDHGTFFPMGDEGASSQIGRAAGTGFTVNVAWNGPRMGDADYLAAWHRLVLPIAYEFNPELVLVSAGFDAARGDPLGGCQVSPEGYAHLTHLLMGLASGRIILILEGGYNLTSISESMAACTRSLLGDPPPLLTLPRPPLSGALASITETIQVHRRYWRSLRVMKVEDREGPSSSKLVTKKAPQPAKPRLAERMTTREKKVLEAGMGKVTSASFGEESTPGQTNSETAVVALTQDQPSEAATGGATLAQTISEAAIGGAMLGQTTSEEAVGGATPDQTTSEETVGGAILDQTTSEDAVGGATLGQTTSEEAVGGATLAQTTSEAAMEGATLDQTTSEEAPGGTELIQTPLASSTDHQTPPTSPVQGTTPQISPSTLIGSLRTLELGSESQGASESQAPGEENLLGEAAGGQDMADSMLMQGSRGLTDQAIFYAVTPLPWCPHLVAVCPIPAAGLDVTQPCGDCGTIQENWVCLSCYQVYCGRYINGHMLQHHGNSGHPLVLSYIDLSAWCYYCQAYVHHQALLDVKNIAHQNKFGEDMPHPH
Procedure: (§1) Inhibition of HDAC 1 and HDAC 6 were analyzed with a fluorogenic substrate according to manufacture's protocol (HDAC assay reagents were purchased from BPS Biosciences, San Diego, Calif.). 50 μl reaction mixture, which contains 1×HDAC assay buffer, 5 units of recombinant human HDAC1 or HDAC 6, 10 μM substrate 3 and 1 μl inhibitor in DMSO, was incubated at 37° C. for 1 hour. […] The fluorescence intensity was measured at excitation of 360 nm and emission of 460 nm with SpectraMax Gemini XS microplate reader (Molecular Devices, Sunny Calif.).

[1] = test system: acetylated tubulin and acetylated histone H3 in A549 cells; settings: 24 hrs, tubacin 0.2, 2 or 20 μM; cited from earlier work
LNCaP cells = assay: Cell growth and viability by trypan blue exclusion, LNCaP; settings: LNCaP, 8 μM nil-tubacin alone
Procedure: 5×10^4 cells were seeded per well in a 24-well plate and cultured overnight prior to treating with the compound and/or other agents as indicated for each study. Cells were harvested at 24, 48 and 72 hrs after treatment by trypsin digestion. […] At least three independent analyses were performed for each time point.
To monitor cell growth and viability, cells were seeded in triplicate at 5×10^4 cells in 1 ml of medium in 24-well plates. The drugs were added at the indicated concentrations 24 h after seeding. Cells were harvested by trypsin digestion at 24 h, 48 h and 72 h following drug additions. Cell number and viability were determined by trypan blue exclusion.

recombinant human HDAC1 = recombinant human HDAC1 (Homo sapiens, UniProt Q13547); assay: In vitro HDAC assay with fluorogenic substrate, HDAC 1
Chain of recombinant human HDAC1 (Q13547 whole entry): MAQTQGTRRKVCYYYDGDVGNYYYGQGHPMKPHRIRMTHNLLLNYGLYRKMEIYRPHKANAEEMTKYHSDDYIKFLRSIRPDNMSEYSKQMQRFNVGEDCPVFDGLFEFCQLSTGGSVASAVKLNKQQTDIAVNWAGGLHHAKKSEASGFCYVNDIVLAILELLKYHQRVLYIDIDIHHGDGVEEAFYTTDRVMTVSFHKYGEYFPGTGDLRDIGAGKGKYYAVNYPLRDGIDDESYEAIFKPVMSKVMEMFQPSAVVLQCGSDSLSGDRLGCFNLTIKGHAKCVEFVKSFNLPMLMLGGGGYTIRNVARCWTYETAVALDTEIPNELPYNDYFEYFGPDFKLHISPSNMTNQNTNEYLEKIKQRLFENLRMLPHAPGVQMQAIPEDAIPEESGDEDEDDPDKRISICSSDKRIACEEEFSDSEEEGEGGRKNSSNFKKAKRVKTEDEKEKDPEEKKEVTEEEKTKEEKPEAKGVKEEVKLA
Procedure: as §1

## O=C(O)CCCCCCC(=O)Nc1ccc([C@H]2O[C@@H](CSc3nc(-c4ccccc4)c(-c4ccccc4)o3)C[C@@H](c3ccc(CO)cc3)O2)cc1 [niltubacin]
Recombinant human HDAC 6
  IC50: > 100 nM
[1]
  accumulation of acetylated histone H3: did not induce accumulation
  accumulation of acetylated tubulin: did not induce the accumulation
LNCaP cells
  effect on cell growth or cell viability: did not have a detectable effect
Recombinant human HDAC1
  IC50: > 100 nM

Reference: US9539272B2, “HDAC 6 inhibitor-based methods for treating cancer” (SLOAN-KETTERING INSTITUTE FOR CANCER RESEARCH, priority 2009, dated 2017)
